US20230017045A1, “PYRIDINE AND PYRIMIDINE CARBOXYLATE HERBICIDES AND METHODS OF USE THEREOF” (Dow AgroSciences LLC, priority 2017, published 2023)

These molecules were tested on test plant species (assay: Post-emergent herbicidal activity test (greenhouse, foliar spray, visual growth reduction)). Settings: post-emergence, 336 h, ALOMY: blackgrass (Alopecurus myosuroides), 140 g ai/ha, 14 days after application, read-out: Visual Growth Reduction (%) 14 Days After Application, ALOMY.
Type: in vivo
Method in brief: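 Visual percent injury (0-100) rated 14 d after treatment, relative to nontreated and solvent-blank plants. Test plants at first or second true leaf stage received an overhead track-sprayer application at 187 L/ha. Compounds were formulated in aqueous acetone/DMSO carrier containing crop oil concentrate and X-77 surfactant.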

SMILES | pest or weed control at 140 g/ha
COC(=O)c1nc(-c2ccc(Cl)cc2Cl)ccc1C [F52, Methyl 6-(2,4-dichlorophenyl)-3-methylpicolinate] | 0 to 29%
O=C(O)c1nc(-c2cc(Br)c(C(F)(F)F)cc2Cl)c(F)cc1Cl [F181, 6-(5-Bromo-2-chloro-4-(trifluoromethyl)phenyl)-3-chloro-5-fluoropicolinic acid] | 30 to 44%

Same assay, conditions: post-emergence, 336 h, AMARE: redroot pigweed (Amaranthus retroflexus), 140 g ai/ha, 14 days after application, read-out: Visual Growth Reduction (%) 14 Days After Application, AMARE

SMILES | pest or weed control at 140 g/ha
COC(=O)c1nc(-c2ccc(Cl)cc2Cl)ccc1C [F52, Methyl 6-(2,4-dichlorophenyl)-3-methylpicolinate] | 0 to 29%
O=C(O)c1nc(-c2cc(Br)c(C(F)(F)F)cc2Cl)c(F)cc1Cl [F181, 6-(5-Bromo-2-chloro-4-(trifluoromethyl)phenyl)-3-chloro-5-fluoropicolinic acid] | 95 to 100%

Same assay, conditions: post-emergence, 336 h, AVEFA: wild oat (Avena fatua), 140 g ai/ha, 14 days after application, read-out: Visual Growth Reduction (%) 14 Days After Application, AVEFA

SMILES | pest or weed control at 140 g/ha
COC(=O)c1nc(-c2ccc(Cl)cc2Cl)ccc1C [F52, Methyl 6-(2,4-dichlorophenyl)-3-methylpicolinate] | 0 to 29%
O=C(O)c1nc(-c2cc(Br)c(C(F)(F)F)cc2Cl)c(F)cc1Cl [F181, 6-(5-Bromo-2-chloro-4-(trifluoromethyl)phenyl)-3-chloro-5-fluoropicolinic acid] | 30 to 44%

Same assay, conditions: post-emergence, 336 h, CHEAL: lambsquarters (Chenopodium album), 140 g ai/ha, 14 days after application, read-out: Visual Growth Reduction (%) 14 Days After Application, CHEAL

SMILES | pest or weed control at 140 g/ha
COC(=O)c1nc(-c2ccc(Cl)cc2Cl)ccc1C [F52, Methyl 6-(2,4-dichlorophenyl)-3-methylpicolinate] | 0 to 29%
O=C(O)c1nc(-c2cc(Br)c(C(F)(F)F)cc2Cl)c(F)cc1Cl [F181, 6-(5-Bromo-2-chloro-4-(trifluoromethyl)phenyl)-3-chloro-5-fluoropicolinic acid] | 95 to 100%

Same assay, conditions: post-emergence, 336 h, CIRAR: canada thistle (Cirsium arvense), 140 g ai/ha, 14 days after application, read-out: Visual Growth Reduction (%) 14 Days After Application, CIRAR

SMILES | pest or weed control at 140 g/ha
COC(=O)c1nc(-c2ccc(Cl)cc2Cl)ccc1C [F52, Methyl 6-(2,4-dichlorophenyl)-3-methylpicolinate] | 0 to 29%
O=C(O)c1nc(-c2cc(Br)c(C(F)(F)F)cc2Cl)c(F)cc1Cl [F181, 6-(5-Bromo-2-chloro-4-(trifluoromethyl)phenyl)-3-chloro-5-fluoropicolinic acid] | 75 to 84%

Same assay, conditions: post-emergence, 336 h, CYPES: yellow nutsedge (Cyperus esculentus), 140 g ai/ha, 14 days after application, read-out: Visual Growth Reduction (%) 14 Days After Application, CYPES

SMILES | pest or weed control at 140 g/ha
COC(=O)c1nc(-c2ccc(Cl)cc2Cl)ccc1C [F52, Methyl 6-(2,4-dichlorophenyl)-3-methylpicolinate] | 0 to 29%
O=C(O)c1nc(-c2cc(Br)c(C(F)(F)F)cc2Cl)c(F)cc1Cl [F181, 6-(5-Bromo-2-chloro-4-(trifluoromethyl)phenyl)-3-chloro-5-fluoropicolinic acid] | 45 to 59%

Same assay, conditions: post-emergence, 336 h, DIGSA: crabgrass (Digitaria sanguinalis), 140 g ai/ha, 14 days after application, read-out: Visual Growth Reduction (%) 14 Days After Application, DIGSA

SMILES | pest or weed control at 140 g/ha
COC(=O)c1nc(-c2ccc(Cl)cc2Cl)ccc1C [F52, Methyl 6-(2,4-dichlorophenyl)-3-methylpicolinate] | 0 to 29%
O=C(O)c1nc(-c2cc(Br)c(C(F)(F)F)cc2Cl)c(F)cc1Cl [F181, 6-(5-Bromo-2-chloro-4-(trifluoromethyl)phenyl)-3-chloro-5-fluoropicolinic acid] | 95 to 100%

Same assay, conditions: post-emergence, 336 h, ECHCG: barnyardgrass (Echinochloa crus-galli), 140 g ai/ha, 14 days after application, read-out: Visual Growth Reduction (%) 14 Days After Application, ECHCG

SMILES | pest or weed control at 140 g/ha
COC(=O)c1nc(-c2ccc(Cl)cc2Cl)ccc1C [F52, Methyl 6-(2,4-dichlorophenyl)-3-methylpicolinate] | 0 to 29%
O=C(O)c1nc(-c2cc(Br)c(C(F)(F)F)cc2Cl)c(F)cc1Cl [F181, 6-(5-Bromo-2-chloro-4-(trifluoromethyl)phenyl)-3-chloro-5-fluoropicolinic acid] | 60 to 74%

Same assay, conditions: post-emergence, 336 h, IPOHE: ivy-leaf morning glory (Ipomoea hederacea), 140 g ai/ha, 14 days after application, read-out: Visual Growth Reduction (%) 14 Days After Application, IPOHE

SMILES | pest or weed control at 140 g/ha
O=C(O)c1nc(-c2cc(Br)c(C(F)(F)F)cc2Cl)c(F)cc1Cl [F181, 6-(5-Bromo-2-chloro-4-(trifluoromethyl)phenyl)-3-chloro-5-fluoropicolinic acid] | 95 to 100%

Same assay, conditions: post-emergence, 336 h, KCHSC: kochia (Bassia scoparia), 140 g ai/ha, 14 days after application, read-out: Visual Growth Reduction (%) 14 Days After Application, KCHSC

SMILES | pest or weed control at 140 g/ha
COC(=O)c1nc(-c2ccc(Cl)cc2Cl)ccc1C [F52, Methyl 6-(2,4-dichlorophenyl)-3-methylpicolinate] | 0 to 29%
O=C(O)c1nc(-c2cc(Br)c(C(F)(F)F)cc2Cl)c(F)cc1Cl [F181, 6-(5-Bromo-2-chloro-4-(trifluoromethyl)phenyl)-3-chloro-5-fluoropicolinic acid] | 60 to 74%

Same assay, conditions: post-emergence, 336 h, ORYSA: rice (Oryza sativa), 140 g ai/ha, 14 days after application, read-out: Visual Growth Reduction (%) 14 Days After Application, ORYSA

SMILES | pest or weed control at 140 g/ha
COC(=O)c1nc(-c2ccc(Cl)cc2Cl)ccc1C [F52, Methyl 6-(2,4-dichlorophenyl)-3-methylpicolinate] | 0 to 29%
O=C(O)c1nc(-c2cc(Br)c(C(F)(F)F)cc2Cl)c(F)cc1Cl [F181, 6-(5-Bromo-2-chloro-4-(trifluoromethyl)phenyl)-3-chloro-5-fluoropicolinic acid] | 0 to 29%

Same assay, conditions: post-emergence, 336 h, SETFA: giant foxtail (Setaria faberi), 140 g ai/ha, 14 days after application, read-out: Visual Growth Reduction (%) 14 Days After Application, SETFA

SMILES | pest or weed control at 140 g/ha
COC(=O)c1nc(-c2ccc(Cl)cc2Cl)ccc1C [F52, Methyl 6-(2,4-dichlorophenyl)-3-methylpicolinate] | 0 to 29%
O=C(O)c1nc(-c2cc(Br)c(C(F)(F)F)cc2Cl)c(F)cc1Cl [F181, 6-(5-Bromo-2-chloro-4-(trifluoromethyl)phenyl)-3-chloro-5-fluoropicolinic acid] | 30 to 44%

Same assay, conditions: post-emergence, 336 h, SORVU: grain sorghum (Sorghum vulgare), 140 g ai/ha, 14 days after application, read-out: Visual Growth Reduction (%) 14 Days After Application, SORVU

SMILES | pest or weed control at 140 g/ha
COC(=O)c1nc(-c2ccc(Cl)cc2Cl)ccc1C [F52, Methyl 6-(2,4-dichlorophenyl)-3-methylpicolinate] | 0 to 29%
O=C(O)c1nc(-c2cc(Br)c(C(F)(F)F)cc2Cl)c(F)cc1Cl [F181, 6-(5-Bromo-2-chloro-4-(trifluoromethyl)phenyl)-3-chloro-5-fluoropicolinic acid] | 95 to 100%

Same assay, conditions: post-emergence, 336 h, STEME: common chickweed (Stellaria media), 140 g ai/ha, 14 days after application, read-out: Visual Growth Reduction (%) 14 Days After Application, STEME

SMILES | pest or weed control at 140 g/ha
COC(=O)c1nc(-c2ccc(Cl)cc2Cl)ccc1C [F52, Methyl 6-(2,4-dichlorophenyl)-3-methylpicolinate] | 0 to 29%
O=C(O)c1nc(-c2cc(Br)c(C(F)(F)F)cc2Cl)c(F)cc1Cl [F181, 6-(5-Bromo-2-chloro-4-(trifluoromethyl)phenyl)-3-chloro-5-fluoropicolinic acid] | 0 to 29%

Same assay, conditions: post-emergence, 336 h, TRZAS: wheat, spring (Triticum aestivum), 140 g ai/ha, 14 days after application, read-out: Visual Growth Reduction (%) 14 Days After Application, TRZAS

SMILES | pest or weed control at 140 g/ha
COC(=O)c1nc(-c2ccc(Cl)cc2Cl)ccc1C [F52, Methyl 6-(2,4-dichlorophenyl)-3-methylpicolinate] | 0 to 29%
O=C(O)c1nc(-c2cc(Br)c(C(F)(F)F)cc2Cl)c(F)cc1Cl [F181, 6-(5-Bromo-2-chloro-4-(trifluoromethyl)phenyl)-3-chloro-5-fluoropicolinic acid] | 45 to 59%
